This note sets out measurements from patent publication US9521847B2, “Synergistic weed control from applications of pyridine carboxylic acid herbicides and synthetic auxin herbicides and/or auxin transport inhibitors” (Dow AgroSciences LLC, priority 2014, dated 2016).

Each structure is given as a SMILES string.

Series [1] concerns blackgrass (Alopecurus myosuroides, ALOMY). Briefly: Greenhouse postemergence trial, % visual injury. The settings on record: 140 g ae/ha. In kind it is in vivo.
Series [2] deals with kochia (KCHSC, Kochia scoparia). Briefly: Patio postemergence trial, % visual injury. In kind it is in vivo. The settings on record: 280 g ae/ha alone, 20-22 d. As to the method:
(§1) The plants were grown for 7-36 days (d) on a fenced, open-air patio. Nutrients and water were added on a regular basis.
(§2) Temperatures and photoperiods were dependent on the natural weather conditions during the trials. Weather conditions during trials were conducive for plant growth and development.

The subject of series [3] is pigweed (AMARE, Amaranthus retroflexus). Kind of series: Patio postemergence trial, % visual injury. The format is in vivo. The settings on record: 280 g ae/ha alone, 20-22 d. The method, then:
as §1, §2

Series [4] has as its system CIRAR = Cirsium arvense (Canadian thistle). Kind of series: Small plot field trial (Canada), % visual injury. The format is in vivo. The following applies: 560 g ae/ha alone, 46-64 DAA. The method, then:
(§3) Trials were established as randomized complete blocks with 3-4 replicates. Individual plots were 2-3 meters (m) wide and 8-10 m long. Applications were made with backpack or tractor-mounted sprayers delivering a spray volume output of 100 liters per hectare (L/ha) using pressurized carbon dioxide (CO2) as a propellant. Compound 7 was combined with 2,4 D EHE (660 g ae/L EC formulation) and applied to spring wheat (TRZAS), and the phytotoxicity of the herbicidal compositions was measured. In addition, the efficacy of the herbicidal composition on Canadian thistle ([…], Cirsium arvense), […] scoparia), mallow ([…] pusilla), wild buckwheat (POLCO, Polygonum convolvulus), and lady's thumb (POLPE, Polygonum persicaria) was evaluated.

Series [5] has as its system MALPU = Malva pusilla (mallow). Briefly: Small plot field trial (Canada), % visual injury. In kind it is in vivo. The following applies: 560 g ae/ha alone, 26-33 DAA. The method, then: as §3
The subject of series [6] is kochia (KCHSC, Kochia scoparia). Briefly: Small plot field trial (Canada), % visual injury. In kind it is in vivo. The following applies: 560 g ae/ha alone, 46-64 DAA. As to the method:
as §3

Series [7] relates to lady's thumb (POLPE, Polygonum persicaria). Kind of series: Small plot field trial (Canada), % visual injury. In kind it is in vivo. The following applies: 560 g ae/ha alone, 14-16 DAA. As to the method: as §3
For series [8], the system named is wild buckwheat (POLCO, Polygonum convolvulus). Briefly: Small plot field trial (Canada), % visual injury. The format is in vivo. The settings on record: 560 g ae/ha alone, 15 DAA. The method, then:
as §3

Series [9] relates to spring wheat (TRZAS). Kind of series: Small plot field trial (Canada), crop phytotoxicity (% visual injury). In kind it is in vivo, Triticum aestivum. The following applies: 560 g ae/ha alone. An excerpt:
Small plot field trials were established in Canada to evaluate efficacy and crop safety of Compound 7 with 2,4-D EHE. Trials were established as randomized complete blocks with 3-4 replicates. Individual plots were 2-3 meters (m) wide and 8-10 m long. Applications were made with backpack or tractor-mounted sprayers delivering a spray volume output of 100 liters per hectare (L/ha) using pressurized carbon dioxide (CO2) as a propellant. Compound 7 was combined with 2,4 D EHE (660 g ae/L EC formulation) and applied to spring wheat (TRZAS), and the phytotoxicity of the herbicidal compositions was measured. In addition, the efficacy of the herbicidal composition on Canadian thistle ([…], Cirsium arvense), kochia (KCHSC, Kochia scoparia), mallow (MALPU, Marva pusilla), wild buckwheat (POLCO, Polygonum convolvulus), and lady's thumb (POLPE, Polygonum persicaria) was evaluated.

Series [10] deals with winter wheat (TRZAW). The following applies: winter wheat (Triticum aestivum), in vivo.
The subject of series [11] is turnip (Brassica rapa, BRSRR). Briefly: Greenhouse postemergence trial, % visual injury. In kind it is in vivo. The following applies: for % visual injury, Obs: BRSRR, compound 1 (EC) 5 g ae/ha.
Series [12] relates to wild radish (Raphanus raphanistrum, RAPRA). Kind of series: Greenhouse postemergence trial, % visual injury. In kind it is in vivo.
Series [13] deals with brown mustard (Brassica juncea, BRSJU). Briefly: Greenhouse postemergence trial, % visual injury. The format is in vivo.
Series [14] has as its system rutabaga (Brassica napus var. napobrassica, BRSNA). Kind of series: Greenhouse postemergence trial, % visual injury. In kind it is in vivo.
Series [15] concerns barnyardgrass (Echinochloa crus-galli, ECHCG). Kind of series: Greenhouse postemergence trial, % visual injury. In kind it is in vivo.
Series [16] has as its system ivyleaved speedwell (Veronica hederifolia, VERHE). Briefly: Greenhouse postemergence trial, % visual injury. In kind it is in vivo. The settings on record: compound 1 (EC) 5 g ae/ha.
The test system of series [17] is Roundup Ready rape (Brassica napus, BRSNN-RR). Briefly: Greenhouse postemergence trial, % visual injury. The format is in vivo. The following applies: compound 1 (EC) 5 g ae/ha.
Setting [18] is: 5 g ae/ha alone (compound 1 as EC), 20-22 d.

On to `CCCCC(CC)COC(=O)COc1ccc(Cl)cc1Cl` (centres unmarked) [2,4-D EHE, 2-ethylhexyl (2,4-dichlorophenoxy)acetate, reference compound], for which the “% visual injury, Obs” value in series [1] and in series [10] was 0% in each case. Besides, the “% visual injury Obs” value worked out at 10% in series [2]; 50% in series [3]; 65% in series [4]; 74% in series [5]; 25% in series [6]; 55% in series [7]. Besides, the “% visual injury Obs” value in series [8] was found to be 51%; in series [9] (6-8 DAA) it was 3%; in [9] (14-16 DAA) it was 0%.
Consider `Nc1c(F)c(-c2ccc3cc[nH]c3c2F)nc(C(=O)O)c1Cl` [compound 1], for which the “% visual injury, Obs” value in series [11] (Table 62) was determined as 50%; in series [11] (Table 63), 50%; in series [13] (BRSJU, compound 1 (EC) 5 g ae/ha, Table 62) it was 60%; in series [14] (BRSNA, compound 1 (EC) 5 g ae/ha, Table 63), 65%; in series [15] (ECHCG, 5 g ae/ha), 65%; in series [17] (Table 62), 35%. The “% visual injury, Obs” value in series [17] (Table 63) was 35%. Moreover, the “% visual injury (Obs)” value in series [11] (compound 1 SC 2.5 g ae/ha) is 45%; in series [11] (compound 1 SC 5 g ae/ha), 62%; in series [12] (compound 1 SC 2.5 g ae/ha), 13%; in series [12] (compound 1 SC 5 g ae/ha) it was 13%; in series [15] (compound 1 (EC) 5 g ae/ha), 65%; in [16], 40%. In addition, the entries for the “% visual injury Obs” value in [13] (setting [18]) and in series [14] (setting [18]) were 60% and 65%, respectively.
